Experimental data reported in ChEMBL document CHEMBL1201862, “PubChem BioAssay data set” (2004).
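96-well plates; 48 h exposure; 5 concentrations. Endpoints by linear interpolation between flanking doses. Not reached: highest tested concentration assigned. GI50: concentration for 50% inhibition of growth.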 The source made the active and inactive calls. Rule as the data show it: active = GI50 up to about 1.1 µM and inactive = higher.

Assays:
Assay in all cases: NCI anticancer screen, dose series, 48 h
[1] = system: UO-31
[2] = system: TK-10
[3] = system: NCI-H226
[4] = system: M19-MEL
[5] = system: SW-620
[6] = system: SK-MEL-2
[7] = system: M14
[8] = system: IGROV-1
[9] = system: HCT-15
[10] = system: UACC-62
[11] = system: SNB-19
[12] = system: CAKI-1
[13] = system: HL-60
[14] = system: RXF 393
[15] = system: HCC 2998
[16] = system: HOP-62
[17] = system: PC-3
[18] = system: MDA-MB-435
[19] = system: NCI/ADR-RES
[20] = system: T47D

SMILES | GI50 [1] | GI50 [2] | GI50 [3] | GI50 [4] | GI50 [5] | GI50 [6] | GI50 [7] | GI50 [8] | GI50 [9] | GI50 [10] | GI50 [11] | GI50 [12] | GI50 [13] | GI50 [14] | GI50 [15] | GI50 [16] | GI50 [17] | GI50 [18] | GI50 [19] | GI50 [20]
C[C@]12CC[C@H](O)CC1=CC[C@@H]1C2CC[C@]2(C)C(=O)NC(=O)CC12 (stereo partly specified) | > 100 µM (inactive) | > 100 µM (inactive) | > 100 µM (inactive) | > 100 µM (inactive) | 47.8 µM (inactive) | 64.7 µM (inactive) | > 100 µM (inactive) | 96.8 µM (inactive) | > 100 µM | > 100 µM (inactive) | > 100 µM (inactive) | > 100 µM (inactive) | > 100 µM (inactive) | > 100 µM (inactive) | > 100 µM (inactive) | > 100 µM (inactive) | – | – | – | –
CCOC(=O)CCC(=O)C1c2cccc(O)c2C(=O)c2c(O)cc(C)cc21 (stereo unspecified) | 0.627 µM (active) | 1.87 µM (inactive) | 0.719 µM (active) | 0.637 µM (active) | 0.948 µM (active) | 0.344 µM (active) | 1.4 µM (inactive) | 0.289 µM (active) | 0.826 µM | 0.434 µM (active) | 0.327 µM (active) | 1.79 µM (inactive) | 0.676 µM (active) | 0.391 µM (active) | 0.507 µM (active) | 0.656 µM (active) | – | – | – | –
[O-][Cl+3]([O-])([O-])O.c1ccc(/N=c2\nc(N3CCOCC3)ss2)cc1 | 28.6 µM (inactive) | 46.5 µM (inactive) | 61.1 µM (inactive) | 18 µM (inactive) | 10.2 µM (inactive) | 17.9 µM (inactive) | 14.7 µM (inactive) | 20.1 µM (inactive) | 15.5 µM | 13.8 µM (inactive) | 30.5 µM (inactive) | 20.2 µM (inactive) | 14.6 µM (inactive) | 17.3 µM (inactive) | 21.1 µM (inactive) | 41.3 µM (inactive) | – | – | – | –
Cc1cccc2c1c1ccc3c(c1n2C)C(=O)C=CC3=O | 3.4 µM (inactive) | 2.79 µM (inactive) | 17.3 µM (inactive) | 5.33 µM (inactive) | 2.03 µM (inactive) | 15.6 µM (inactive) | 6.22 µM (inactive) | 18.3 µM (inactive) | 5.18 µM | 13.2 µM (inactive) | 16.7 µM (inactive) | 3.2 µM (inactive) | 0.521 µM (active) | 3.48 µM (inactive) | 18.2 µM (inactive) | 19 µM (inactive) | – | – | – | –
C=C(c1ccccc1)[C@@]1(O)CCCC[C@H]1NC(c1ccccc1)c1ccccc1 | 14.5 µM (inactive) | 16.3 µM (inactive) | 6.97 µM (inactive) | 15 µM (inactive) | 14.4 µM (inactive) | 13.3 µM (inactive) | 14 µM (inactive) | 16.2 µM (inactive) | 10.9 µM | 13.1 µM (inactive) | 15.7 µM (inactive) | 7.67 µM (inactive) | 2.65 µM (inactive) | 7.89 µM (inactive) | 12.6 µM (inactive) | 15.1 µM (inactive) | – | – | – | –
CC(CC[C@@H](C)C1CCC2[C@@H]3CC(O)C4CC(O)[C@@H](O)C[C@]4(C)C3CC[C@@]21C)C(C)(C)C (stereo partly specified) | > 100 µM (inactive) | > 100 µM (inactive) | > 100 µM (inactive) | > 100 µM (inactive) | > 100 µM (inactive) | > 100 µM (inactive) | > 100 µM (inactive) | > 100 µM (inactive) | > 100 µM | > 100 µM (inactive) | > 100 µM (inactive) | > 100 µM (inactive) | > 100 µM (inactive) | > 100 µM (inactive) | > 100 µM (inactive) | > 100 µM (inactive) | – | – | – | –
COc1c(CC=C(C)C)c(O)c(C(CC(C)C)c2c(O)c(CC=C(C)C)c(O)c(C(C)=O)c2O)c(O)c1C(C)=O (stereo unspecified) | 3.08 µM (inactive) | 1.03 µM (active) | 1.24 µM (inactive) | 1.43 µM (inactive) | 0.48 µM (active) | 0.504 µM (active) | 1.43 µM (inactive) | 1.7 µM (inactive) | 0.4 µM | 0.527 µM (active) | 1.15 µM (inactive) | 1.21 µM (inactive) | 0.767 µM (active) | 0.427 µM (active) | 0.537 µM (active) | 1.4 µM (inactive) | 0.305 µM (active) | 1.94 µM (inactive) | 0.729 µM (active) | 0.385 µM (active)
